Holding throughout (experiment): NCI anticancer screen, dose series, 48 h
In assay [1] the test system is NCI-H23 lung.
The subject of assay [2] is HL-60(TB) leukemia.
The subject of assay [3] is SF-539 CNS.
Assay [4] has as its system EKVX NSCLC.
Assay [5] deals with NCI-H460 lung.
The test system of assay [6] is 786-0 renal.
For assay [7], the system named is NCI/ADR-RES ovarian.
In assay [8] the test system is COLO 205 colon.
Assay [9] has as its system BT-549 breast.
Assay [10] concerns SF-295 CNS.
The subject of assay [11] is SR leukemia.

Values joined by “and” are separate entries in the source; they are usually repeats but may differ in a detail not shown here. Equal values may be shown once.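 Method: 48-hour compound exposure of cells in 96-well plates, five concentrations, linear interpolation of endpoints. At the GI50, growth is halved. At the TGI there is no net growth.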 Some results are limits rather than exact numbers.

As to `Cc1ccccc1C(C#N)C(=O)C(=O)Nc1nc([N+](=O)[O-])cs1` (centres undefined), the TGI in assay [1], in assay [2], in assay [3], in assay [4], in assay [5] and in assay [6] was above 100 µM in each case.
For the molecule `COC(=O)C1=C(C(=O)OC)C2OC1C1C2C2(C)C(C)=C(C)C1(C)S2=O` (centres undefined), the TGI in assay [1] was 25.8 µM; in assay [7], above 66.5 µM; in [8], 13.8 µM; in assay [3] it was above 100 µM; in assay [4], 27.6 µM; in [5], 36.3 µM. The results for the TGI in assay [6], in assay [9] and in assay [10] were 20.2 µM, 25.1 µM and above 84.8 µM, respectively.
With `CCSc1nnc(CSc2nc(-c3ccccc3)c(-c3ccccc3)[nH]2)n1-c1ccccc1`, the TGI in [1] is 40.8 µM; in assay [2] it was 45.5 µM; in [8], 29.5 µM; in [11] it was 48.5 µM; in assay [4] it was 63.5 µM; in [5], 36.9 µM. Besides, the TGI in assay [6] turned out to be 45.7 µM; in [10], 44.7 µM.
For the molecule `COc1ccc(/C(=C/n2ccnc2)C(=O)c2ccc(OC)c(OC)c2)cc1`, the TGI in [1], in assay [2], in assay [8], in assay [11], in [3] and in [4] was above 100 µM in each case. In addition, the TGI in assay [5] and in assay [6] was above 100 µM each time.
`COC1O[C@H]2CCN(C(=O)OCc3ccccc3)[C@H]2[C@H]1OCc1ccccc1` (some centres undefined): the TGI in [1] was above 90.5 µM; in [2] it was 68.6 µM; in [8] it was above 100 µM; in [11] it was 99.7 µM; in assay [3], above 100 µM; in assay [4], above 100 µM. For the same molecule, the TGI in assay [5], in [6] and in assay [10] was above 100 µM throughout.
With `O=c1[nH]cnc2c(C3OC(CO)C(O)C3O)c[nH]c12` (centres undefined), the TGI in assay [1], in assay [2], in assay [8], in assay [11], in assay [3] and in assay [4] was above 100 µM in each case. In addition, the TGI in assay [5], in [6], in assay [9] and in [10] was above 100 µM in each case.
On to `CC1C(c2cc(C(C)(C)C)c(O)c(C(C)(C)C)c2)c2cc3c(cc2OC1N1CCOCC1)OCO3` (centres undefined), for which the TGI was 94.9 µM in assay [1]; 87.4 µM in assay [7]; above 100 µM in [8]; above 100 µM in assay [11]; 43.7 µM in assay [3]; above 100 µM in assay [4]. Moreover, the TGI in [5] turned out to be 87 µM; in [6], 27.1 µM; in [10], 32.1 µM.
`CCOC(=O)C(OCC1CC=CCC1)Sc1ccccc1` (centres undefined): the TGI in assay [1], in assay [2], in [8], in [11], in assay [3] and in assay [4] was above 100 µM throughout. Further, the TGI in assay [5], in assay [6] and in assay [10] was above 100 µM in each case.
On to `O=C1CC2C=CC(O)C(C1)C2` (centres undefined), for which the TGI in assay [1], in assay [7], in assay [2], in assay [8], in [11] and in assay [3] was above 100 µM each time. The TGI in [5], in assay [6] and in assay [10] was above 100 µM in each case.
Turning to `COC(=O)c1cc(CC(C)C)c2c(c1)[nH]c1ccccc12`, the TGI in [1], in assay [8], in [3], in assay [4], in [5] and in assay [6] was above 100 µM in each case. This molecule also yielded a TGI in assay [10] above 100 µM.
Take `CC(C)CC(N)C(=O)OCN1C(=O)C2C3C=CC(C2C1=O)C1C2C(=O)N(COC(=O)C(N)CC(C)C)C(=O)C2C31` (centres undefined): the TGI was above 100 µM in assay [1]; 65.2 µM in assay [2]; above 100 µM in assay [8]; above 100 µM in [3]; above 100 µM in [4]; above 100 µM in assay [5]. Moreover, the TGI in [6] and in assay [10] was above 100 µM each time.
For `COC(=O)C(C#N)=C1c2ccccc2Oc2ccccc21`, the TGI was above 100 µM in assay [1]; 56.4 µM in [2]; above 100 µM in assay [8]; above 100 µM in [3]; above 100 µM in [4]; above 100 µM in [5]. Further, the TGI in assay [6] and in [10] was above 100 µM throughout.
For the molecule `CC(C)=CCN1CC(C)C(=O)Nc2cc(Cl)ccc21` (centres undefined), the TGI in [1] is 85.5 µM; in [2] it was above 100 µM; in [8], 41.9 µM; in assay [11], above 100 µM; in assay [3], 43 µM; in assay [4] it was 94.8 µM. Further, the TGI in assay [5] was 40.7 µM; in assay [6], 39.2 µM; in assay [9] it was 51.6 µM; in assay [10], above 100 µM.
`COc1ccc(-c2c(C#N)c(N)n(C3OC(CO)C(O)C(O)C3O)c(=S)c2C#N)cc1` (centres undefined): the TGI in [1], in assay [2], in [11], in [3], in [4] and in [5] was above 100 µM each time. Also, the TGI in [6], in assay [9] and in assay [10] was above 100 µM in each case. Further, the GI50 in assay [10] was 64.7 µM and 22.3 µM.
Turning to `CC(C)C(Sc1nc(-c2ccccc2)c(-c2ccccc2)[nH]1)C(=O)NNC(=S)Nc1ccccc1` (centres undefined), the TGI in assay [1] is 37.2 µM; in [2] it was 40.1 µM; in assay [8], 35.9 µM; in assay [11], 64.2 µM; in assay [3] it was 35.8 µM; in assay [4], 61.4 µM. The TGI was 33.9 µM in [5], 35.8 µM in assay [6] and 35.5 µM in assay [10].
